Reference: paper PMC12118597 (Science Advances, 2025)
Values joined by “and” are separate entries in the source; they are usually repeats but may differ in a detail not shown here. Identical values can stand only once. Like-named read-outs stand apart in the source and are kept apart here.

Target: SARS-CoV-2 NSP3 macrodomain (Mac1) (Severe acute respiratory syndrome coronavirus 2, UniProt P0DTD1)
Type: binding
Settings: for 1-BDC: PanDDA background density correction factor; for Total number of conformations: ligand conformations modeled in the crystal structure; for 2*(1-BDC) (%): occupancy estimate from PanDDA; for Refined ligand occupancy (%): refined crystallographic occupancy
[1] = TRUE = crystal structure with ligand obtained
[2] = crystal soak 10 mM, P43 crystal form
[3] = site of ligand in X-ray crystal structure
[4] = ligand-bound crystal structure obtained (TRUE)
[5] = site occupied in X-ray crystal structure

| Compound | Occupancy difference (refined_occupancy - 2*(1-BDC)) | 1-BDC | X-ray crystal structure [1] | PanDDA run, overall: Hit [2] | PanDDA run, DMSO background map: 1-BDC (crystal soak 10 mM) | PanDDA run, DMSO background map: Hit (crystal soak 10 mM) | Total number of conformations | 2*(1-BDC) (%) | Refined ligand occupancy (%) | Binding site [3] | other results |
| --- | --- | --- | --- | --- | --- | --- | --- | --- | --- | --- | --- |
| OCC(CC(O)c1ccccc1)Nc1ncnc2[nH]ccc12 (stereo not drawn) [AVI-3642] | 0 | 0.17 | TRUE | TRUE | 0.17 | TRUE | 1 | 34 | 34 | Adenosine | PanDDA run, overall: Modeled [2]: TRUE |
| OCC(Cc1cncs1)Nc1ncnc2[nH]ccc12 (stereo not drawn) [AVI-3703] | 0 | 0.15 | TRUE | TRUE | 0.15 | TRUE | 1 | 30 | 30 | Adenosine | – |
| O[C@@H]1COC[C@H]1Nc1ncnc2[nH]ccc12 [AVI-1443] | – | – | – | – | – | – | – | – | – | – | PanDDA run, overall: Modeling comment (crystal soak 5 mM): Weak density, not modeled; PanDDA run, overall: Hit (crystal soak 5 mM, P43 crystal form): TRUE; PanDDA run, DMSO background map: 1-BDC (crystal soak 5 mM): 0.05 and 0.04; PanDDA run, DMSO background map: Hit (crystal soak 5 mM): TRUE |
| Cc1ccc(CC(CO)Nc2ncnc3[nH]ccc23)cc1 (stereo not drawn) [AVI-3683] | 20 | 0.15 | TRUE | TRUE | 0.15 | TRUE | 2 | 30 | 50 | Adenosine | PanDDA run, overall: Modeled [2]: TRUE |
| CC(C)(C)[C@@H]1CCN(c2ncnc3[nH]ccc23)[C@H](CO)C1 [AVI-3722] | 0 | 0.11 | – | TRUE | 0.11 | TRUE | 1 | 22 | 22 | – | X-ray crystal structure [4]: TRUE; Binding site [5]: Adenosine |
| C[C@@H](O)[C@H](CO)Nc1ncnc2[nH]ccc12.O=C(O)C(F)(F)F [AVI-3730] | 0 | 0.14 | TRUE | TRUE | 0.14 | TRUE | 1 | 28 | 28 | Adenosine | – |
| OCC(CC(F)(F)F)Nc1ncnc2[nH]ccc12 (stereo not drawn) [AVI-3637] | 0 | 0.23 | TRUE | TRUE | 0.23 | TRUE | 1 | 46 | 46 | Adenosine | – |
| OCC(Nc1ncnc2[nH]ccc12)c1ccccc1 (stereo not drawn) [AVI-3715] | 0 | 0.18 | TRUE | TRUE | 0.18 | TRUE | 1 | 36 | 36 | Adenosine | – |
| O=C(O)C(F)(F)F.OC1c2ccccc2CC1Nc1ncnc2[nH]ccc12 (stereo not drawn) [AVI-3634] | – | – | – | – | – | – | – | – | – | – | PanDDA run, overall: Modeling comment (crystal soak 10 mM): TFA only |
| OCC(COCc1ccccc1)Nc1ncnc2[nH]ccc12 (stereo not drawn) [AVI-3709] | 0 | 0.19 | TRUE | TRUE | 0.19 | TRUE | 2 | 38 | 38 | Adenosine | – |
| CCn1c(C)nnc1Sc1cnc2ccccc2n1 [AVI-297] | – | – | – | – | – | – | – | – | – | – | PanDDA run, DMSO background map: 1-BDC (event 1, soak concentration 10 mM): 0.05; PanDDA run, DMSO background map: Hit (soak concentration 10 mM): TRUE; PanDDA run, overall: Modeling comment (crystal soak, P43 crystals, soak concentration 10 mM): Only density for quinoxaline, not modeled; PanDDA run, overall: Hit (crystal soak, P43 crystals, soak concentration 10 mM for the hits shown): TRUE |
| OCC1CC2(CCC2)CN1c1ncnc2[nH]ccc12 (stereo not drawn) [AVI-3728] | 0 | 0.24 | – | TRUE | 0.24 | TRUE | 2 | 48 | 48 | – | PanDDA run, overall: Modeling comment (crystal soak 10 mM): Distal site, weak density, not modeled; X-ray crystal structure [4]: TRUE; Binding site [5]: Adenosine |
